Experimental data published in PubChem BioAssay AID220 (DTP/NCI, 2004).
Values joined by “and” are separate entries in the source; they are usually repeats but may differ in a detail not shown here. Equal values may be shown once. Results filed as inconclusive are left out.

Test system: CD8F1 mice, subcutaneous mammary adenocarcinoma, T/C%
Assay: NCI In Vivo Anticancer Drug Screen. Data for tumor model Mammary Adenocarcinoma CD8F1 (subcutaneous) in CD8F1
Details: higher = larger tumour
Outline: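 Mice carrying transplanted tumors received test compound, and survival or tumor size was recorded. Each value is the treated-group measurement divided by the corresponding measurement in vehicle-dosed controls.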

[1] = endpoint: median tumor weight (est.), dose: 50.0 mg/kg/injection, schedule: Q07DX005 (ip), vehicle: suspension in saline
[2] = endpoint: median tumor weight (est.), dose: 100.0 mg/kg/injection, schedule: Q07DX005 (ip), vehicle: saline
[3] = endpoint: median tumor weight (est.), dose: 100.0 mg/kg/injection, schedule: Q07DX005 (ip), vehicle: suspension in saline
[4] = endpoint: median tumor weight (est.), dose: 12.5 mg/kg/injection, schedule: Q07DX005 (ip), vehicle: saline with Tween-80
[5] = endpoint: median tumor weight (est.), dose: 25.0 mg/kg/injection, schedule: Q07DX005 (ip), vehicle: saline with Tween-80
[6] = endpoint: median tumor weight (est.), dose: 100.0 mg/kg/injection, schedule: Q07DX005 (ip), vehicle: saline with Tween-80
[7] = endpoint: median tumor weight (est.), dose: 200.0 mg/kg/injection, schedule: Q07DX005 (ip), vehicle: saline with Tween-80
[8] = endpoint: median tumor weight (est.), dose: 50.0 mg/kg/injection, schedule: Q07DX005 (ip), vehicle: saline with Tween-80
[9] = endpoint: median tumor weight change, dose: 125.0 mg/kg/injection, schedule: Q01DX001 (ip), vehicle: saline with Tween-80
[10] = endpoint: median tumor weight change, dose: 250.0 mg/kg/injection, schedule: Q01DX001 (ip), vehicle: saline with Tween-80

Structure (SMILES): CCN(CC)CCCC(C)Nc1c2ccc(Cl)cc2nc2ccc(OC)cc12 (stereo unspecified)
- T/C (endpoint: median tumor weight (est.), dose: 12.5 mg/kg/injection, schedule: Q07DX005 (ip), vehicle: saline): 88 % of control
- T/C (endpoint: median tumor weight (est.), dose: 25.0 mg/kg/injection, schedule: Q07DX005 (ip), vehicle: saline): 65 % of control
- T/C (endpoint: median tumor weight (est.), dose: 25.0 mg/kg/injection, schedule: Q07DX005 (ip), vehicle: suspension in saline): 60 % of control
- T/C (endpoint: median tumor weight (est.), dose: 50.0 mg/kg/injection, schedule: Q07DX005 (ip), vehicle: saline): 90 % of control
- T/C [1]: 94 % of control
- T/C [2]: 74 % of control
- T/C [3]: 50 % of control

Structure (SMILES): O=c1[nH]c(=O)n([C@H]2CCCO2)cc1F
- T/C (endpoint: median tumor weight (est.), dose: 12.5 mg/kg/injection, schedule: Q07DX005 (ip), vehicle: Klucel (hydroxypropylcellulose) (HPC)): 100 % of control
- T/C (endpoint: median tumor weight (est.), dose: 20.0 mg/kg/injection, schedule: Q07DX005 (ip), vehicle: Klucel (hydroxypropylcellulose) (HPC)): 82 % of control
- T/C (endpoint: median tumor weight (est.), dose: 40.0 mg/kg/injection, schedule: Q07DX005 (ip), vehicle: Klucel (hydroxypropylcellulose) (HPC)): 97 % of control
- T/C (endpoint: median tumor weight (est.), dose: 50.0 mg/kg/injection, schedule: Q07DX005 (ip), vehicle: Klucel (hydroxypropylcellulose) (HPC)): 102 % of control
- T/C (endpoint: median tumor weight (est.), dose: 100.0 mg/kg/injection, schedule: Q07DX005 (ip), vehicle: Klucel (hydroxypropylcellulose) (HPC)): 84 % of control
- T/C (endpoint: median tumor weight (est.), dose: 160.0 mg/kg/injection, schedule: Q07DX005 (ip), vehicle: Klucel (hydroxypropylcellulose) (HPC)): 91 % of control
- T/C (endpoint: median tumor weight (est.), dose: 200.0 mg/kg/injection, schedule: Q07DX005 (ip), vehicle: Klucel (hydroxypropylcellulose) (HPC)): 95 % of control
- T/C (endpoint: median tumor weight (est.), dose: 320.0 mg/kg/injection, schedule: Q07DX005 (ip), vehicle: Klucel (hydroxypropylcellulose) (HPC)): 10 % of control
- T/C (endpoint: median tumor weight (est.), dose: 400.0 mg/kg/injection, schedule: Q07DX005 (ip), vehicle: Klucel (hydroxypropylcellulose) (HPC)): 4 % of control

Structure (SMILES): S=c1[nH]cc2cnccn12
- T/C [4]: 92 % of control
- T/C [5]: 105 % of control
- T/C [6]: 85 % of control
- T/C [7]: 56 % of control

Structure (SMILES): O=C[C@@H](CO)O[C@H](C=O)n1cnc2c(=O)[nH]cnc21
- T/C (endpoint: mean tumor weight, dose: 12.5 mg/kg/injection, schedule: Q07DX004 (ip), vehicle: saline with Tween-80): 119 % of control
- T/C (endpoint: mean tumor weight, dose: 25.0 mg/kg/injection, schedule: Q07DX004 (ip), vehicle: saline with Tween-80): 98 % of control
- T/C (endpoint: mean tumor weight, dose: 50.0 mg/kg/injection, schedule: Q07DX004 (ip), vehicle: saline with Tween-80): 76 % of control
- T/C (endpoint: mean tumor weight, dose: 100.0 mg/kg/injection, schedule: Q07DX004 (ip), vehicle: saline with Tween-80): 78 % of control
- T/C (endpoint: mean tumor weight, dose: 200.0 mg/kg/injection, schedule: Q07DX004 (ip), vehicle: saline with Tween-80): 100 % of control
- T/C (endpoint: mean tumor weight, dose: 400.0 mg/kg/injection, schedule: Q07DX004 (ip), vehicle: saline with Tween-80): 67 % of control
- T/C [4]: 95 % of control
- T/C [5]: 116 % of control
- T/C [8]: 118 % of control
- T/C [6]: 113 % of control
- T/C [7]: 84 % of control
- T/C (endpoint: median tumor weight (est.), dose: 400.0 mg/kg/injection, schedule: Q07DX005 (ip), vehicle: saline with Tween-80): 82 % of control

Structure (SMILES): CN(CO)c1nc(N(C)CO)nc(N(C)CO)n1
- T/C (endpoint: median tumor weight (est.), dose: 0.5 mg/kg/injection, schedule: Q07DX005 (ip), vehicle: saline): 56 % of control
- T/C (endpoint: median tumor weight (est.), dose: 1.0 mg/kg/injection, schedule: Q07DX005 (ip), vehicle: saline): 78 % of control
- T/C (endpoint: median tumor weight (est.), dose: 2.0 mg/kg/injection, schedule: Q07DX005 (ip), vehicle: saline): 110 % of control
- T/C (endpoint: median tumor weight (est.), dose: 4.0 mg/kg/injection, schedule: Q07DX005 (ip), vehicle: saline): 48 % of control
- T/C (endpoint: median tumor weight (est.), dose: 6.25 mg/kg/injection, schedule: Q07DX005 (ip), vehicle: saline with Tween-80): 92 % of control
- T/C (endpoint: median tumor weight (est.), dose: 8.0 mg/kg/injection, schedule: Q07DX005 (ip), vehicle: saline): 46 % of control
- T/C [4]: 116 % of control
- T/C (endpoint: median tumor weight (est.), dose: 12.5 mg/kg/injection, schedule: Q07DX006 (ip), vehicle: saline): 288 % of control
- T/C (endpoint: median tumor weight (est.), dose: 16.0 mg/kg/injection, schedule: Q07DX005 (ip), vehicle: saline): 14 % of control
- T/C (endpoint: median tumor weight (est.), dose: 25.0 mg/kg/injection, schedule: Q07DX006 (ip), vehicle: saline): 42 % of control
- T/C [8]: 94 % of control
- T/C (endpoint: median tumor weight (est.), dose: 50.0 mg/kg/injection, schedule: Q07DX006 (ip), vehicle: saline): 40 % of control
- T/C [6]: 25 % of control
- T/C (endpoint: median tumor weight (est.), dose: 100.0 mg/kg/injection, schedule: Q07DX006 (ip), vehicle: saline): 35 % of control
- T/C [7]: 31 % of control
- T/C (endpoint: median tumor weight (est.), dose: 200.0 mg/kg/injection, schedule: Q07DX006 (ip), vehicle: saline): 5 % of control

Structure (SMILES): Nc1nc(Br)nc2c1ncn2C1CC(O)C(CO)O1 (stereo unspecified)
- T/C (endpoint: median tumor weight change, dose: 7.5 mg/kg/injection, schedule: Q03HX009 (ip), vehicle: saline): 112 % of control
- T/C (endpoint: median tumor weight change, dose: 15.0 mg/kg/injection, schedule: Q03HX009 (ip), vehicle: saline): 99 % of control
- T/C (endpoint: median tumor weight change, dose: 30.0 mg/kg/injection, schedule: Q03HX009 (ip), vehicle: saline): 51 % of control
- T/C (endpoint: median tumor weight change, dose: 60.0 mg/kg/injection, schedule: Q03HX009 (ip), vehicle: saline): 54 % of control
- T/C (endpoint: median tumor weight change, dose: 120.0 mg/kg/injection, schedule: Q03HX009 (ip), vehicle: saline): 31 % of control

Structure (SMILES): CC1(C)OC1CS(=O)c1ccccc1 (stereo unspecified)
- T/C [9]: 160 % of control
- T/C [10]: 83 % of control and 92 % of control
- T/C (endpoint: median tumor weight change, dose: 500.0 mg/kg/injection, schedule: Q01DX001 (ip), vehicle: saline with Tween-80): 72 % of control and 94 % of control

Structure (SMILES): N#C[C@H](OC1OC(COC2OC(CO)C(O)C(O)C2O)C(O)C(O)C1O)c1ccccc1 (stereo partly specified)
- T/C [1]: 75 % of control
- T/C [2]: 76 % of control
- T/C [3]: 77 % of control
- T/C (endpoint: median tumor weight (est.), dose: 200.0 mg/kg/injection, schedule: Q07DX005 (ip), vehicle: saline): 95 % of control
- T/C (endpoint: median tumor weight (est.), dose: 200.0 mg/kg/injection, schedule: Q07DX005 (ip), vehicle: suspension in saline): 171 % of control
- T/C (endpoint: median tumor weight (est.), dose: 400.0 mg/kg/injection, schedule: Q07DX005 (ip), vehicle: saline): 83 % of control
- T/C (endpoint: median tumor weight (est.), dose: 400.0 mg/kg/injection, schedule: Q07DX005 (ip), vehicle: suspension in saline): 100 % of control
- T/C (endpoint: median tumor weight (est.), dose: 800.0 mg/kg/injection, schedule: Q07DX005 (ip), vehicle: saline): 96 % of control
- T/C (endpoint: median tumor weight (est.), dose: 1600.0 mg/kg/injection, schedule: Q07DX005 (ip), vehicle: saline): 41 % of control
- T/C (endpoint: median tumor weight (est.), dose: 1600.0 mg/kg/injection, schedule: Q07DX005 (ip), vehicle: suspension in saline): 413 % of control

Structure (SMILES): CC(=O)Nc1ccc(/C=N/NC(N)=S)cc1
- T/C (endpoint: median tumor weight change, dose: 31.25 mg/kg/injection, schedule: Q01DX001 (ip), vehicle: Klucel (hydroxypropylcellulose) (HPC)): 96 % of control
- T/C (endpoint: median tumor weight change, dose: 62.5 mg/kg/injection, schedule: Q01DX001 (ip), vehicle: Klucel (hydroxypropylcellulose) (HPC)): 84 % of control
- T/C (endpoint: median tumor weight change, dose: 125.0 mg/kg/injection, schedule: Q01DX001 (ip), vehicle: Klucel (hydroxypropylcellulose) (HPC)): 103 % of control
- T/C (endpoint: median tumor weight change, dose: 250.0 mg/kg/injection, schedule: Q01DX001 (ip), vehicle: Klucel (hydroxypropylcellulose) (HPC)): 48 % of control
- T/C (endpoint: median tumor weight change, dose: 500.0 mg/kg/injection, schedule: Q01DX001 (ip), vehicle: Klucel (hydroxypropylcellulose) (HPC)): 99 % of control

Structure (SMILES): Cc1ccoc1
- T/C (endpoint: median tumor weight change, dose: 20.8 mg/kg/injection, schedule: Q03HX003 (ip), vehicle: saline with Tween-80): 66 % of control
- T/C (endpoint: median tumor weight change, dose: 41.6 mg/kg/injection, schedule: Q03HX003 (ip), vehicle: saline with Tween-80): 82 % of control
- T/C (endpoint: median tumor weight change, dose: 83.3 mg/kg/injection, schedule: Q03HX003 (ip), vehicle: saline with Tween-80): 62 % of control
- T/C (endpoint: median tumor weight change, dose: 166.6 mg/kg/injection, schedule: Q03HX003 (ip), vehicle: saline with Tween-80): 73 % of control

Structure (SMILES): CCCCOCN(COCCCC)C12CC3CC(CC(C3)C1)C2
- T/C (endpoint: median tumor weight change, dose: 62.5 mg/kg/injection, schedule: Q01DX001 (ip), vehicle: saline with Tween-80): 122 % of control
- T/C [9]: 79 % of control
- T/C [10]: 61 % of control

Structure (SMILES): Cc1oc2c(C)c3oc(=O)cc(C)c3cc2c1CCl
- T/C (endpoint: median tumor weight change, dose: 15.62 mg/kg/injection, schedule: Q01DX001 (ip), vehicle: saline with Tween-80): 60 % of control
- T/C (endpoint: median tumor weight change, dose: 31.25 mg/kg/injection, schedule: Q01DX001 (ip), vehicle: saline with Tween-80): 68 % of control
- T/C (endpoint: median tumor weight change, dose: 1000.0 mg/kg/injection, schedule: Q01DX001 (ip), vehicle: saline with Tween-80): 42 % of control
